Patent publication US9056835B2, “LPA2 receptor-specific benzoic acid derivatives” (University of Tennessee Research Foundation, priority 2012, dated 2015)

Experiments:
P2Y10 = P2Y10 (Homo sapiens, UniProt O00398); test: LPA receptor-mediated Ca2+ mobilization assay, P2Y10; assay type: cell-based; conditions: for inhibition of P2Y10 Ca2+ response: 10 μM, ~EC75 LPA 18:1; for P2Y10 Imax (%): inhibition by 10 μM compound of ~EC75 LPA 18:1 Ca2+ response; for EC50: agonist, Ca2+ mobilization
Description: (§1) Similarity searches were performed separately using each fingerprint to quantitate similarity. Hits meeting the 80% similarity threshold from each search were ranked based on the Tanimoto coefficient measure of similarity to a target molecule NSC12404, and the top 75 unique hits from each fingerprint search were selected for further analysis. The 225 compounds selected for further analysis were clustered based on Tanimoto coefficients calculated using Molecular ACCess System-key fingerprints (MACCS keys) and evaluated using the diversity subset function implemented in MOE. This selected a diverse subset of 27 compounds for biological evaluation by choosing the middle compounds in each cluster. These 27 compounds were tested in Ca^2+ mobilization assays at a concentration of 10 μM using stable cell lines individually expressing LPA2 and also in vector-transfected control cells. Hits activating LPA2 were further tested using cells expressing the other established and putative LPA GPCRs. Experimental testing of the selected compounds identified the three new selective LPA2 agonists: GRI977143, H2L5547924, and H2L5828102. […] They arbitrarily selected GRI977143 for further characterization in cell-based assays.
(§2) J Biol Chem (2009) 284(25): 17304-17319). […] The cells were loaded with Fura-2-acetoxymethyl esther (Fura-2/AM) in Krebs buffer containing 0.01% pluronic acid for 30 min and rinsed with Krebs buffer before measuring Ca^2+ mobilization. The ratio of peak emissions at 510 nm after 2 min of ligand addition was determined for excitation wavelengths of 340 nm/380 nm. All samples were run in quadruplicate. […] The half maximally effective concentration (EC50), and inhibitory constant (Ki) values were calculated by fitting a sigmoid function to dose-response data points using KaleidaGraph software (version 4.1, Synergy Software; […]).
(§3) Mouse embryonic fibroblast (MEF) cells were isolated from E13.5 LPA1&2 double knockout (DKO) embryos. MEFs were transduced with empty vector or LPA2-containing lentiviruses and selected with 1.5 μg/ml puromycin. Cells were maintained in Dulbecco's modified Eagle medium (DMEM) supplemented with 10% (V/V) fetal bovine serum (FBS), 2 mM L-glutamine, 100 U/mL penicillin, and 100 μg/mL streptomycin. Serum-free medium contained 0.1% (W/V) BSA in DMEM. The rat intestinal epithelial cell line 6 (IEC-6) was obtained from the American Type Culture Collection (Rockville, Md.) at passage 13; passages 16-21 were used in all experiments. IEC-6 cells were maintained in a humidified 37° C. incubator in an atmosphere of 90% air and 10% CO2. Growth medium consisted of DMEM supplemented with 5% heat inactivated FBS, 10 μg/mL insulin, and 50 μg/mL gentamycin. The composition of the serum-starvation medium was the same as that of the full growth medium except that it contained no FBS. The McArdle rat hepatoma cell line (RH7777) stably expressing LPA2 receptors was a gift from Dr. Fumikazu Okajima (Gunma University, Maebashi, Japan). RH7777 cells stably expressing LPA1 or LPA3 receptors were generated in-house and had been characterized earlier. Wild type and LPA receptor (LPAR) stably transfected RH7777 cells were grown in DMEM supplemented with 10% FBS and 2 mM L-glutamine in the presence of 250 μg/ml G418. Chinese hamster ovary (CHO) cells stably expressing either vector or LPA4 receptor were a kind gift from Dr. Takao Shimizu (Tokyo University; Tokyo, Japan). Cells were cultured in Ham's F12 medium containing 10% FBS, 2 mM L-glutamine, and 350 μg/ml G418. Rat neuroblastoma cells (B103) were transduced with the lentivirus harboring wild type of FLAG-LPA5 and selected with puromycin to establish the stable cell lines. The stable cells were maintained in DMEM supplemented with 10% FBS and 0.4 μg/ml puromycin. GPR87- and P2Y10-expressing CHO cells and vector-transfected control cells were a gift from Dr. Norihisha Fujita (Ritsumeikan University; Shiga, Japan). […]

LPA1 = target: T1, LPA1 (Homo sapiens, UniProt Q92633); test: LPA receptor-mediated Ca2+ mobilization assay, LPA1; assay type: cell-based; conditions: for inhibition of LPA1 Ca2+ response: 10 μM, ~EC75 LPA 18:1; for LPA1 Imax (%): inhibition by 10 μM compound of ~EC75 LPA 18:1 Ca2+ response; for EC50: agonist, Ca2+ mobilization
T1 construct: expressed in transfected cells
T1 sequence (Q92633 whole entry, species assumed): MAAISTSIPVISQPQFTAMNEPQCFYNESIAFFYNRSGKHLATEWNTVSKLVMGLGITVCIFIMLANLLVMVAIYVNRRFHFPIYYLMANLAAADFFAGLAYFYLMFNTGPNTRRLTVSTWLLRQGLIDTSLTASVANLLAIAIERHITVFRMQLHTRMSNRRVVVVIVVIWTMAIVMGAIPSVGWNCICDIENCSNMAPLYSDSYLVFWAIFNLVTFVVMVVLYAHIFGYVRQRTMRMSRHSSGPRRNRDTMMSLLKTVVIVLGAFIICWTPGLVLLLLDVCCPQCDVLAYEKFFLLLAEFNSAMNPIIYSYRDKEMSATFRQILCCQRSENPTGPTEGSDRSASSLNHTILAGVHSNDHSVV
Description: as §1, §2, §3

[1] = test system: vector- and LPA2-transduced MEF cells; test: Adriamycin-induced apoptosis, caspase activity assay; assay type: cell-based, mouse; conditions: for decrease in caspase-8 activation / decrease in caspase 9 activation: GRI977143 10 μM; for protection against caspase 3 and 7 activation: GRI977143 above 3 μM; for inhibition of caspase 3/7 activation: 10 μM
Description: (§4) Experiments were performed on vector- and LPA2-transduced MEF cells. To measure caspase 3, 7, 8, or 9 activity and DNA fragmentation, cells were plated in 48-well plates (2×10^4 cells/well). To detect PARP-1 cleavage and Bax translocation, 1.5×10^6 cells were plated in 10-cm dishes and cultured overnight in full growth medium. The next morning, the growth medium was replaced by serum-starvation medium and cells were pretreated for 1 h with LPA (1-10 μM), OTP (1-10 μM), GRI977143 (1-10 μM), or vehicle. Caspase activity, DNA fragmentation, PARP-1 cleavage, and Bax translocation were measured 5 h after incubation with 1.7 μM Adriamycin or 24 h after serum withdrawal.
Caspase-Glow® 3/7, Caspase-Glow® 8 and Caspase-Glow® 9 reagents were purchased from Promega (Madison, Wis.) and used according to the manufacturer's instructions. Briefly, cells were lysed by adding 50 μl of lysis reagent per well, followed by shaking for 30 min at room temperature. […] lysate were transferred to a 96-well white-wall plate, and luminescence was measured using a BioTek® (Winooski, Vt.) plate reader.

[2] = test system: vector- and LPA2-transduced MEF cells; test: Adriamycin-induced apoptosis, DNA fragmentation ELISA; assay type: cell-based, mouse; conditions: GRI977143 10 μM
Description: as §4
Apoptotically-challenged cells were washed twice with PBS, and a quantitative DNA fragmentation assay was carried out using a Cell Death Detection ELISA PLUS kit (Roche Diagnostics, Penzberg, Germany) and normalized to protein concentration using the BCA Protein Assay Kit (Thermo Fisher Scientific, Inc.; Rockford, Ill.) as described previously (Valentine et al., 2010). Aliquots of nuclei-free cell lysate were placed in streptavidin-coated wells and incubated with anti-histone-biotin antibody and anti-DNA peroxidase-conjugated antibody for 2 h at room temperature. After the incubation, the sample was removed, and the wells were washed and incubated with 100 μl 2,2′-azino-di[3-ethylbenzthiazolin-sulfonate substrate at room temperature before the absorbance was read at 405 nm. Results were expressed as absorbance at 405 nm/min/mg protein as detailed in our previous report (Ray et al., Mdm2 inhibition induces apoptosis in p53 deficient human colon cancer cells by activating p73- and E2F1-mediated expression of PUMA and Siva-1. Apoptosis (2011) 16(1): 35-44).

[3] = LPA2-transduced MEF, LPA and OTP 1 μM
[4] = vector-transduced MEF, LPA and OTP 1 μM
[5] = LPA2-transduced MEF, LPA and OTP 3 μM

Chain of P2Y10 (O00398 whole entry): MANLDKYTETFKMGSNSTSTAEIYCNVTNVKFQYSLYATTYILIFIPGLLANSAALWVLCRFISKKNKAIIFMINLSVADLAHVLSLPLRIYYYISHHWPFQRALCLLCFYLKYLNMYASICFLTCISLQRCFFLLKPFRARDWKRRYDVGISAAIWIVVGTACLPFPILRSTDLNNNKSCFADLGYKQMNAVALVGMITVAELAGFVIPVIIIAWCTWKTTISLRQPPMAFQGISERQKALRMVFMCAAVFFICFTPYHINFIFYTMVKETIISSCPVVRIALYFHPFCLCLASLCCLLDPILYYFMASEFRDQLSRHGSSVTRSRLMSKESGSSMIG

Molecule | inhibition of P2Y10 Ca2+ response (P2Y10) | P2Y10 Imax (%) (P2Y10) | inhibition of LPA1 Ca2+ response (LPA1) | LPA1 Imax (%) (LPA1) | decrease in caspase-8 activation [1, 3] [%] | decrease in caspase 9 activation ([1]; LPA2-transduced MEF, OTP 1 μM) [%] | protection against caspase 3 and 7 activation ([1]; LPA2-transduced MEF) | inhibition of caspase 3/7 activation ([1]; vector-transduced MEF) | decrease in caspase 9 activation [1, 4] | EC50 (P2Y10) [nM] | reduction of DNA fragmentation [2, 5] [%] | reduction of DNA fragmentation ([2]; vector-transduced MEF) [%] | decrease in caspase 8 activation [1, 4] [%] | EC50 (LPA1) [nM]
O=C(O)c1cc(Cl)c(Cl)cc1C(=O)Nc1ccc2c(c1)C(=O)c1ccccc1-2 [Compound H2L5547924] | partially inhibited | 34 | partially inhibited | 21 | – | – | – | – | – | – | – | – | – | –
O=C(O)c1ccccc1C(=O)Nc1ccc2c(c1)C(=O)c1ccccc1C2=O [Compound H2L5828102] | partially inhibited | 39 | partially inhibited | 29 | – | – | – | – | – | – | – | – | – | –
O=C(O)c1ccccc1SCCCN1C(=O)c2cccc3cccc(c23)C1=O [GRI977143] | – | – | – | – | 41±5 | 46±4 | significant protection | did not attenuate | did not affect | > 10000 | 41±2 | 7±1 | – | –
CCCCCCCC/C=C\CCCCCCCC(=O)OC[C@@H](O)COP(=O)(O)O [LPA 18:1, Lysophosphatidic acid (18:1)] | – | – | – | – | 36±1 | – | protected | 26±1% | – | 29 | 35±4 | – | 12±2 | 130
O=C(O)c1ccccc1C(=O)Nc1ccc2c(c1)C(=O)c1ccccc1-2 [NSC12404] | – | – | – | – | – | – | – | – | – | > 10000 | – | – | – | > 10000
octadecenyl thiophosphate [OTP] | – | – | – | – | 33±2 | 38±1 | protected | did not attenuate | – | – | 32±1 | – | 15±5 | 651
